Test results: US5380763A, “Topical composition for treating acne vulgaris” (Takasago International Corporation, priority 1992, dated 1995)
Values after ≈ are worked out from the molar mass of the structure shown. Where two headings read alike, the source gives them in different places.

What was measured:
[1] = system: Staphylococcus aureaus; conditions: among 1-alkanols having 10 to 16 carbon atoms; Kato et al. (1980); cited from earlier work
[2] = system: Propionibacterium acnes; experiment: Minimum inhibitory concentration (MIC) against Propionibacterium acnes (Test Example 1); type: cell-based, Propionibacterium acnes (ATCC 6919); conditions: Cutibacterium acnes
Description: The minimum inhibitory concentration (MIC) of 1-pentadecanol against Propionibacterium acnes was determined as follows.
In 1 l of purified water was dissolved 59.0 g of a GAM (Gifu anaerobic medium) bouillon medium (Nissui Pharmaceutical Co., Ltd.) and 1-pentadecanol was added to the bouillon solution to give a concentration of 100 μg/ml. The mixture was stepwise diluted two times with the same medium, followed by sterilization.
A 10 ml aliquot of the mixture was put in a test tube and inoculated with 0.1 ml of the culture of Propionibacterium acnes (ATCC 6919) which had been precultured so as to give a cell density of 1×10^8 cells/ml. The system was static-cultured under anaerobic conditions for 48 hours, and the turbidity was measured at a wavelength of 660 nm to obtain MIC (μg/ml).
For comparison, MIC of 1-dodecanol and 1-hexadecanol, which have relatively strong antibacterial activity on several bacteria and are generally used as a base of cosmetics, against Propionibacterium acnes was obtained in the same manner.

[3] = GAM bouillon medium, anaerobic static culture 48 hours, turbidity at 660 nm, read-out: MIC

| Compound | effectiveness on Staphylococcus aureaus [1] | MIC [2, 3] | MIC ([2]; 48 h) |
| --- | --- | --- | --- |
| CCCCCCCCCCCCO [1-dodecanol] | the most effective | 25 µg/mL (≈ 134 µM) | – |
| CCCCCCCCCCCCCCCCO [1-hexadecanol] | – | > 200 µg/mL | – |
| CCCCCCCCCCCCCCCO [1-pentadecanol] | – | – | 3.13 µg/mL (≈ 13.7 µM) |
